Data set [1] deals with tetrabenazine ptosis. Put plainly: Effect on tetrabenazine ptosis (TBZ), mouse (Method 1). Format: in vivo, mouse (NMRI). Conditions: po, 0.5 h. On the procedure:
(§1) The appropriate amount of a homogenate of the particular substance in aqueous carboxymethylcellulose is fed to 6 male animals by means of a gavage one hour before treatment with tetrabenazine (40 mg/kg), intraperitoneally).
(§2) 1. Test of the effect on tetrabenazine ptosis (TBZ)
(§3) Test on mice (NMRI), male, weight 19-21 g, or on rats (Wistar), male, about 120 g body weight. Preparation administered orally, homogenized in 1% strength tylose, 1 hour before tetrabenzine, 40 mg/kg, administered subcutaneously (N=6/dose). During the test, 6 animals are present together in one container. To test for upper lid ptosis, the animals are placed individually on the table top. The extent of the ptosis (0-4 points) is assessed and is expressed as a percentage of the maximum score achievable. Evaluation is carried out 30 minutes after administration of tetrabenazine.

Data set [2] relates to tetrabenazine ptosis. Put plainly: Effect on tetrabenazine ptosis (TBZ), rat (Method 1). The following applies: po, 0.5 h. It is filed as in vivo, rat (Wistar). On the procedure: as §1, §2, §3
Another data set has as its system yohimbine toxicity. Put plainly: Potentiation of the yohimbine toxicity in mice (Method 2). Format: in vivo, mouse (NMRI). The following applies: 1 hour before yohimbine hydrochloride 20 mg/kg s.c.; for LD50, potentiation of yohimbine toxicity (Method 2, mouse): oral, deaths after 18 hours. On the procedure: The compounds I and their acid addition salts potentiate the toxicity of yohimbine in mice. Antidepressants of type I administered orally in a dose of 0.5 to 100 mg/kg increased the death rate for an otherwise non-fatal dose of yohimbine hydrochloride (20 mg/kg, administered subcutaneously).
2. Potentiation of the yohimbine toxicity in mice
The toxicity of yohimbine, a blocker of presynaptic alpha-receptors, is potentiated by antidepressants (literature: R. M. Quinton, Brit. J. Pharmac. 21, 55-56 (1963). Male mice, NMRI strain, 20-22 g, were arranged in test groups of n=10. The test preparation was suspended in 1% strength aqueous Tylose® slime and administered orally in a volume of 10 ml/kg. Control received only the vehicle.
After a pretreatment time of 1 hour, all animals received a dose of yohimbine hydrochloride, which dose, when administered alone, is non-toxic (20 mg/kg, administered subcutaneously). The dead animals were determined 18 hours after this treatment. (Calculation of the LD50 by probit analysis).

Another data set deals with stereotypes. Kind of data set: Test of the promotion of stereotypes in rats (Method 3). Format: in vivo, rat (Wistar). Conditions: for ED50: read-out: ED50, dose at which half the maximum possible number of points is reached (Method 3, rat). As to the method:
3. Test of the promotion of stereotypes in rats
The tests were carried out on 130-140 g male Wistar rats. The stereotypes were assessed at 15 minute intervals during the first two hours after administration of the substance, and then at half-hourly intervals up to the 6th hour. The scale below was used. […]
The number of points were calculated as a total number per 6 hours, divided by the number of observations.
The ED50 dose is the dose at which half the maximum possible number of points (5 points multiplied by the number of observations) is reached.

Setting [3] is: read-out: ED50, 50% reduction in the degree of ptosis (Method 1), mouse, p.o., 1 hour before tetrabenazine 40 mg/kg.
[4] abbreviates: Mus musculus, read-out: ED50, 50% reduction in the degree of ptosis (Method 1, mouse).
Where [5] appears, read: Rattus norvegicus, read-out: ED50, 50% reduction in the degree of ptosis (Method 1, rat).

Structures are written as SMILES. Where two headings read alike, the source gives them in different places.

By ED50 is commonly meant the dose that gives a 50% effect, or the effect in half of the subjects. Regarding `CN1Cc2c(N)cccc2C(c2ccccc2)C1` (centres unmarked) [Nomifensin, reference compound], the ED50 is 0.72 mg/kg in the data set on tetrabenazine ptosis [1] (setting [3]); 2.7 mg/kg with tetrabenazine ptosis [2] (read-out: ED50, 50% reduction in the degree of ptosis (Method 1), rat, p.o., 1 hour before tetrabenazine 40 mg/kg); 11.9 mg/kg in the data set with stereotypes (Rattus norvegicus, 6 h). Moreover, in the data set with yohimbine toxicity, the “LD50, potentiation of yohimbine toxicity (Method 2, mouse)” value (“LD50, potentiation of yohimbine toxicity” for short) is reported as 8.6 mg/kg.

Turning to `Cc1cccc(C(n2ccnc2)C2(O)C3CC4CC(C3)CC2C4)c1` (centres unmarked) [Example 106, (2-Hydroxy-2-adamantyl)-1-imidazolyl-(3-tolyl)-methane], the ED50 with tetrabenazine ptosis [1] (setting [3]) was 1.5 mg/kg; in the data set on stereotypes (po, rat, p.o., 6 hours), greater than 30 mg/kg. The “LD50, potentiation of yohimbine toxicity” value in the data set on yohimbine toxicity is on record as 7 mg/kg.

As to `OC1(C(c2ccc3ccccc3c2)n2ccnc2)C2CC3CC(C2)CC1C3` (centres unmarked) [Example 126], in the data set with tetrabenazine ptosis [1] (setting [4]), the ED50 stood at 3 mg/kg. Further, the “LD50, potentiation of yohimbine toxicity” value in the data set on yohimbine toxicity amounted to 3.2 mg/kg.

Regarding `CC(C)(C)C(O)C(c1ccc(-c2ccccc2)cc1)n1ccnc1` (centres unmarked) [Example 4, 1-(4-Biphenyl)-3,3-dimethyl-1-(1-imidazolyl)-butan-2-ol], in the data set on yohimbine toxicity, the “LD50, potentiation of yohimbine toxicity” value amounted to 5.3 mg/kg. Besides, in the data set on stereotypes (po, rat, p.o., 6 hours), the ED50 was greater than 30 mg/kg.

For `OC1(C(c2cccc(Cl)c2)n2ccnc2)C2CC3CC(C2)CC1C3` (racemic) [Example 25, (3-chlorophenyl)-(2-hydroxy-2-adamantyl)-(1-imidazolyl)-methane], the figures for the ED50 with tetrabenazine ptosis [1] (setting [4]) and with tetrabenazine ptosis [2] (setting [5]) were 0.79 mg/kg and 10 mg/kg, respectively. For the same molecule, the “LD50, potentiation of yohimbine toxicity” value in the data set with yohimbine toxicity was determined as 4.4 mg/kg. For the same molecule, in the data set with stereotypes (rat, up to 300 mg/kg p.o.), the “stereotypes (Method 3, rat), in words” value was “no stereotypes”.

Turning to `COc1ccc(C(n2ccnc2)C2(O)C3CC4CC(C3)CC2C4)cc1OC` (centres unmarked) [Example 120], in the data set on tetrabenazine ptosis [1] (setting [4]), the ED50 is 3 mg/kg. The “ED50 (Method 2, mouse)” value in the data set on yohimbine toxicity (p.o., given as ED50, 1080 min) turned out to be 3 mg/kg.

Take `OC(C(c1cccc(Cl)c1)n1ccnc1)C12CC3CC(CC(C3)C1)C2` (centres unmarked) [Example 105, 1-(1-Adamantyl)-2-(3-chlorophenyl)-2-(1-imidazolyl)-ethanol]: the “LD50, potentiation of yohimbine toxicity” value with yohimbine toxicity is given as 8.5 mg/kg. In the data set on stereotypes (po, rat, p.o., 6 hours), the 50% effective dose (ED50) is greater than 30 mg/kg.

On to `O=C(O)C(O)C(O)C(=O)O.OC1(C(c2cccc(Cl)c2)n2ccnc2)C2CC3CC(C2)CC1C3` (single isomer, unassigned; (+)) [Example 168a, (+)-(3-chlorophenyl)-(2-hydroxy-2-adamantyl)-(1-imidazolyl)-methane hydrogen tartrate], for which the ED50 was 2.5 mg/kg in the data set on tetrabenazine ptosis [1] (setting [4]); 5.5 mg/kg in the data set with tetrabenazine ptosis [2] (setting [5]); 30 mg/kg in the data set on stereotypes (Rattus norvegicus, po, 6 h). The “LD50, potentiation of yohimbine toxicity” value in the data set with yohimbine toxicity was 4.6 mg/kg.

Values taken from patent US5100890A, “Arylmethylazoles and their salts, agents which contain these compounds, and their use” (priority 1985, dated 1992).
